Reference: paper PMC6941404, “Pigmentosins from Gibellula sp. as antibiofilm agents and a new glycosylated asperfuran from Cordyceps javanica” (Beilstein Journal of Organic Chemistry, 2019)
≈ marks a conversion by molar mass, not a printed value. Like-named read-outs stand apart in the source and are kept apart here. Values belong to the molecule of their own block, whether it stands above or below them.

Legend:
Caenorhabditis elegans = test: Nematicidal activity microwell plate assay; assay type: cell-based; conditions: 18 h, tested 100, 50, 20 and 10 μg/mL, NA = No activity
Method: (§1) To evaluate the biological effects of compounds 1–6, various assays were carried out. The antimicrobial activity of the isolated compounds against Bacillus subtilis DSM10, Escherichia coli DSM498, Candida tenuis MUCL29892, and Mucor plumbeus MUCL49355 was determined as described by Kuephadungphan and co-workers. The nematicidal activity against Caenorhabditis elegans was investigated using a microtiter plate assay according to Helaly and co-workers, while the cytotoxicity was tested against murine fibroblast (L929) and human HeLa (KB3.1) cell lines according to Chepkirui and co-workers.
(§2) Biological activity screening of compounds 1–6 […]
Nematicidal activity assay
The nematicidal activity of the new compounds against C. elegans was performed by a microwell plate assay reported by Stadler et al.5 with slightly modification. The modified protocol was reported by Helaly et al.6 The studied compounds were dissolved with methanol to a concentration of […] and subsequently diluted 1:100 with sterile distilled water. […] Finally, the nematodes were counted using a Malassez counting chamber and further adjusted to obtain a concentration of 500 nematodes/mL with sterile distilled water. […] The plate was incubated at 20 °C in the dark and nematicidal activity was recorded after 18 h of incubation. The nematodes were counted under a stereo microscope. […]

Escherichia coli DSM498 = test: Antimicrobial activity, broth microdilution MIC; assay type: cell-based; conditions: 24 h, NA = No activity
Method: as §1
(§3) Biological activity screening of compounds 1–6
(§4) Antimicrobial activity assay
(§5) The minimum inhibitory concentration (MIC) of compounds 1–6 was determined using the broth microdilution method according to Kuephadungphan et al.4 against B. subtilis DSM10, E. coli DSM498, C. tenuis MUCL29892 and M. plumbeus MUCL49355. Stock suspension of each bacterium and yeast (100 μL) was transferred to 100 mL of EBS medium and YM medium, respectively.
(§6) Suspensions of B. subtilis and C. tenuis were incubated on a rotary shaker at 30 °C for 18–24 h while E. coli was grown at 37 °C for 24 h. After incubation, the suspension was adjusted to a concentration of 6.7 × 10^5 cells/mL using a hemacytometer. The spore suspension of M. plumbeus was prepared at a concentration of 6.7 × 10^5 conidia/mL using YM medium. The determination of MIC was performed in a 96-well microtiter plate. The compounds dissolved in methanol at a concentration of 4.5 mg/mL (20 μL) were transferred to the first row of the plate. Standard antibiotics including ciprofloxacin (bacteria) and nystatin (yeast and fungus), and methanol were used as positive and negative controls, respectively. Inoculum suspension (280 μL) was added to the first row containing compounds and 150 μL were added to the rest. The solutions were then serially 2-fold diluted to 8 concentrations ranging from 2.34–300 μg/mL. Plates were incubated at 30 °C on a microplate-vibrating shaker for 24 h for bacteria and 48 h for yeast and filamentous fungus. […]
(§7) The assay was kindly conducted by Wera Collisi, Department of Microbial Drugs, Helmholtz Centre of Infection Research, Germany. The tested cell lines were cultured in EBM -2 (Lonza) sup plemented with 10% fetal bovine serum (Gibco) under 10% CO2 at 37 °C. A 60 µL of serial dilutions from an initial stock (1 mg/mL) of the test compounds in MeOH was added to 120 µL aliquots of a cell suspension (50,000 cells/mL) in 96-well microplates.
(§8) After incubation for five days, 20 µL of MTT in phosphate buffered saline (PBS) were added to give a final concentration of 0.5 mg/mL. The plates were further incubated for two hours. The precipitate

Bacillus subtilis DSM10 = test: Antimicrobial activity, broth microdilution MIC; assay type: cell-based; conditions: Bacillus subtilis DSM10, 24 h, range 2.34–300 μg/mL, NA = No activity
Method: as §1, §3, §4, §5, §6, §7, §8

Candida tenuis MUCL29892 = test: Antimicrobial activity, broth microdilution MIC; assay type: cell-based; conditions: Candida tenuis MUCL 29892; 48 h; NA = No activity
Method: as §1, §3, §4, §5, §6, §7, §8

Mucor plumbeus MUCL49355 = test: Antimicrobial activity, broth microdilution MIC; assay type: cell-based; conditions: Mucor plumbeus MUCL 49355; 48 h; NA = No activity
Method: as §1, §3, §4, §5, §6, §7, §8

Cytotoxicity assay (MTT) = assay type: cell-based
Method: as §1, §2
as §7, with “The isolated compounds were tested for cytotoxic activity using the MTT (3 -(4,5-dimethylthiayol -2-yl)-2,5-diphenyltetrayolium bromide) method in 96 -well microtiter plates following the procedure previously described by Chepkirui et al.7 against th e cervix carcino ma cell line KB3.1 and the established mouse fibroblast cell line L929. The assay” for “The assay”
After incubation for five days, 20 µL of MTT in phosphate buffered saline (PBS) were added to give a final concentration of 0.5 mg/mL. The plates were further incubated for two hours. The precipitate […]
of formazan crystals was centrifuged and the supernatant was then discarded. Each well was washed with 100 µL of PBS and 100 µL of isopropanol containing 0.4% hydrochloric acid were subsequently added in order to get the residual dissolved. The plates were gently shaken for 20 min before the absorbance at 590 nm was measured using an ELISA microplate reader (Victor). The concentration, at which the growth of cells was inhibited to 50% of the control (IC50), was obtained from the dose - response curves. Methanol was used as negative control while epothilone A and B wer e used as positive controls for L929 and KB3.1 cell lines, respectively. […]
(§9) After incubation at 37 °C under shaking condition, the overnight cultures were adjusted to equal the turbidity of 0.5 McFarland standard using the assay medium. The assay was carried out in 96 -well tissue cultured -treated microplates (TPP®, Germany) for S. aureus and non-treated plates (Falcon®MicroTestTM, USA) for P. aeruginosa , in which 10 μ L of each compound (0.5 mg/m L) in six replicates were mixed together with 140 μ L of bacterial suspension. Methanol and CASO medium with and without 4% glucose were used as negative controls and tetracycline (100 μg/m L) as positive control. Plates were covered with a sterile adhesive porous paper (Kisker Biotech GmbH, Steinfurt, Germany) and incubated at 37 °C for 24 h.
After incubation, ba cterial biofilms were stained with 0.1% crystal violet solution (Sigma -Aldrich) following the protocol of O’Toole .9 Then, the biofilm was subsequently quantified using a microplate reader at 550 nm. […]
aeruginosa PA14 were further evaluated for their bacteriostatic and bactericidal activit ies. The assay was performed in the Bioscreen 100 -well Honeycomb plate according to the protocol described by Yuyama et al. 13 where the MIC values were determined. […]

[1] = parameters: method as in PMID 2143181; conditions: cited from earlier work
[2] = test system: Pseudomonas aeruginosa PA14; test: Anti-biofilm activity, microtiter dish biofilm formation assay; assay type: cell-based; conditions: lowest concentration preventing biofilm formation by at least 50%, 24 h, NA = No activity
Method: (§10) The isolated compounds were also tested for their ability to interfere in the biofilm formation of Staphylococcus aureus DSM1104 and Pseudomonas aeruginosa PA14 [51]. The biofilm inhibition assay was performed in 96-well microtiter plates using the microtiter dish biofilm formation assay described by O’Toole, with minor modifications, as outlined in our recent publications. The antibiofilm activity is expressed as MIC values, which is defined as the lowest concentration of substance that prevents biofilm formation of a target microorganism by at least 50%. […]
(§11) Anti-biofilm activity assay
as §9, with “The determination of the ability of isolated compounds to prevent biofilm formation of S. aureus DSM1104 (ATCC25923) and P. aeruginosa PA148 was performed using the microtiter dish biofilm formation assay described by O’Toole9 with minor modification provided in our recent publications 1, 6, 10–14. The biofilm forming strains were enriched overnight in CASO medium with and without 4% glucose for S. aureus and P. aeruginosa , respectively. After” for “After”
(§12) After incubation, ba cterial biofilms were stained with 0.1% crystal violet solution (Sigma -Aldrich) following the protocol of O’Toole .9 Then, the biofilm was subsequently quantified using a microplate reader at 550 nm. 12 In the current study, the antibiofilm activity was expr essed as MIC value which was defined as the lowest concentration of substance that prevents the biofilm formation of a target microorganism by at least 50%. […]

[3] = test system: Staphylococcus aureus DSM1104; test: as above; assay type: cell-based; conditions: S. aureus DSM1104 (ATCC25923); lowest concentration preventing biofilm formation by at least 50%; 24 h; NA = No activity
Method: as §10, §11
as §9, with “The determination of the ability of isolated compounds to prevent biofilm formation of S. aureus DSM1104 (ATCC25923) and P. aeruginosa PA148 was performed using the microtiter dish biofilm formation assay described by O’Toole9 with minor modification provided in our recent publications 1, 6, 10–14. The biofilm forming strains were enriched overnight in CASO medium with and without 4% glucose for S. aureus and P. aeruginosa , respectively. After” for “After”
as §12

Molecule: ivermectin [reference compound]
Nematicidal CE (Caenorhabditis elegans): 7.5 µg/mL

MIC (Escherichia coli DSM498; read-out: Antimicrobial activity (MIC) EC): 0.52 µg/mL (≈ 1.57 µM)
MIC (Bacillus subtilis DSM10; read-out: Antimicrobial activity (MIC) BS): 0.52 µg/mL (≈ 1.57 µM)
Molecule: O=C(O)c1cn(C2CC2)c2cc(N3CCNCC3)c(F)cc2c1=O [Ciprofloxacin, ciprofloxacin, reference compound]

Antimicrobial activity (MIC) CT (Candida tenuis MUCL29892): devoid of activity
Antimicrobial activity (MIC) MP (Mucor plumbeus MUCL49355): devoid of activity
Antimicrobial activity (MIC) EC (Escherichia coli DSM498): devoid of activity
Antimicrobial activity (MIC) BS (Bacillus subtilis DSM10): devoid of activity
Molecule: CC=CC=CC1Cc2cc(OC3OC(CO)C(OC)C(O)C3O)cc(O)c2O1 (centres unmarked) [Glucoasperfuran (3), glycoasperfuran]

Molecule: C[C@@H]1[C@H](O)[C@@H](C)/C=C/C=C/CC/C=C/C=C/C=C/C=C/C(O[C@H]2O[C@H](C)[C@@H](O)[C@H](N)[C@@H]2O)CC2O[C@](O)(CC(O)C(O)CCC(O)CC(O)CC(O)CC(=O)O[C@H]1C)CC(O)C2C(=O)O (some centres unmarked) [Nystatin, nystatin, reference compound]
Antimicrobial activity (MIC) CT (Candida tenuis MUCL29892): 0.52 µg/mL
Antimicrobial activity (MIC) MP (Mucor plumbeus MUCL49355): 8.33 µg/mL

Molecule: C/C(=C\c1csc(C)n1)[C@@H]1C[C@@H]2O[C@@H]2CCC[C@H](C)[C@H](O)[C@@H](C)C(=O)C(C)(C)[C@@H](O)CC(=O)O1 [Epothilone A, epothilone A]
IC50 at 5 days (Cytotoxicity assay (MTT); mouse, Murine fibroblast cell line L929, five days, NA = No activity): 0.0038 µg/mL (≈ 0.0077 µM)

Molecule: C/C=C/C=C/[C@H]1Cc2cc(O)cc(O)c2O1 [asperfuran]
Antifungal activity [1]: moderately antifungal

Molecule: CCCC[C@H](C)[C@@H]1CC(=O)N[C@@H](Cc2ccccc2)C(=O)N[C@@H](C)C(=O)N[C@H](CC(C)C)C(=O)O1 [Beauverolide I (5), beauverolide I]
IC50 at 5 days (Cytotoxicity assay (MTT); human): 20 µg/mL (≈ 41 µM)

Molecule: CN(C)[C@@H]1C(O)=C(C(N)=O)C(=O)[C@@]2(O)C(O)=C3C(=O)c4c(O)cccc4[C@@](C)(O)[C@H]3C[C@@H]12 [Tetracycline, tetracycline, reference compound]
Anti-biofilm activity (MIC) PA [2]: 1.9 µg/mL
Anti-biofilm activity (MIC) SA [3]: 1.9 µg/mL

Molecule: C/C(=C\c1csc(C)n1)[C@@H]1C[C@@H]2O[C@]2(C)CCC[C@H](C)[C@H](O)[C@@H](C)C(=O)C(C)(C)[C@@H](O)CC(=O)O1 [Epothilone B, epothilone B, reference compound]
IC50 at 5 days (Cytotoxicity assay (MTT); human, HeLa cell line KB3.1, MTT, five days, NA = No activity, a = Proliferation inhibition, no altered or dead cells, read-out: Cytotoxicity (IC50) KB3.1): 0.00022 µg/mL (≈ 0.000433 µM)

Anti-biofilm activity (MIC) SA [3]: 250 µg/mL
Molecule: CCCC[C@H](C)[C@@H]1CC(=O)N[C@@H](Cc2ccc(O)cc2)C(=O)N[C@@H](C)C(=O)N[C@H](CC(C)C)C(=O)O1 [Beauverolide N (4), beauverolide N]
IC50 at 5 days (Cytotoxicity assay (MTT); human, KB3.1 cells (HeLa, cervix carcinoma cell line), HeLa cell line KB3.1, MTT, five days, NA = No activity, a = Proliferation inhibition, no altered or dead cells, read-out: Cytotoxicity (IC50) KB3.1): 16 µg/mL (≈ 31.8 µM)
